Legend:
[1] = tested on: PKC; assay: Cell-based assay of PKC inhibition (PKC substrate phosphorylation in THP-1 cells); details: human THP-1 cells, 1.5 h compound, then 20 nM PMA for 30 min; read-out: absolute IC50, PKC substrate phosphorylation
Protocol: The purpose of this assay is to test the inhibitory effects of a test compound on PKC in a cell-based system by measuring the level of PKC substrate phosphorylation.
Staurosporin may be used as a positive control. It is prepared in DMSO to make up a […] solution and then serially diluted in plain RPMI 1640 culture medium (10 μM-0.0005 μM) to obtain a ten-point dilution curve. Test compounds are prepared in the same manner.
THP-1 cells (human macrophage cell line) are obtained from ATCC (ATCC TIB-202 lot 4028542). The cells are cultured in 96-well plates coated with poly-d-lysine (Becton Dickinson) with seeding density of 4000 cells/well in RPMI 1640 culture medium (Gibco) with 1% fetal bovine serum (Gibco). […]
After the incubation, the cells are first fixed in the Prefer fixative (ANATECH LTD) for 30 min at room temperature. […] Plates are scanned with an ACUMEN EXPLORER™ Laser-scanning fluorescence microplate cytometer (TTP LABTECH LTD), with 488 nm laser excitation to detect emission fluorescence at 655 nm-705 nm (emission of DNA bound propidium iodide) for cell counting/well, and emission of 505 nm-530 nm fluorescence of antibody binding to phosphorylated PKC substrates in cells. The main assay output is a ratio of total fluorescence of phosphorylated PKC substrates to total cell number (ratio=total intensity/total cell number). […]

[2] = tested on: persons with type 2 diabetes and nephropathy; details: in combination with an ACE inhibitor, ARB, or both; cited from earlier work

In the case of `CN(C)C[C@@H]1CCn2cc(c3ccccc32)C2=C(C(=O)NC2=O)c2cn(c3ccccc23)CCO1` [ruboxistaurin], the “effects on albuminuria and renal function” value [2] is given as “favorable effects on albuminuria and renal function”.
